These results are taken from patent US9670226B2, “Sesquiterpenoids” (National Institute of Biological Sciences, Beijing, priority 2014, dated 2017).

Each structure is given as a SMILES string.

One assay has as its target T1, IKKβ C46A (Homo sapiens, UniProt O14920, C46A).
T1 construct: Flag; made in house
The assay is described as follows: Binding to IKKβ cysteine mutants.

The next assay addresses T2, IKKβ Cys46 into serine (Homo sapiens, UniProt O14920, C46S).
T2 construct: Flag; made in house
The assay is described as follows: Binding to Cys46-to-serine mutant.

Assay [1] has as its system gastric adenocarcinoma BCG-823 cells. The assay is described as follows: Cancer cell survival. The assay is classed as cell-based, human.
Another assay concerns the target T3, recombinant Flag-IKKβ (Homo sapiens, UniProt O14920).
T3 construct: made in house; host or cells: 293T cells (transient transfection, anti-Flag purification)
The assay is described as follows: Binding to purified recombinant protein (SDS-PAGE, streptavidin blot). The conditions noted are these: excess unlabeled compound. As to the method: To determine whether 223 directly binds to IKKα and IKKβ, we generated recombinant IKKα and IKKβ proteins for further analysis. 293T cells were transfected with Flag-IKKα or Flag-IKKβ plasmid, and the recombinant Flag-IKKα or Flag-IKKβ was captured by anti-Flag agarose beads and was then eluted off the beads using Flag peptide. The purified Flag-IKKα or Flag-IKKβ was incubated with DMSO or increasing concentrations of Probe, and then the mixtures were resolved by SDS-PAGE, followed by immunoblotting with streptavidin or anti-Flag antibody.

Assay [2] has as its system production of NO in a mouse macrophage cell line RAW264.7. To be noted: RAW264.7 stimulated by LPS; previously shown (ref 22); cited from earlier work.
For another assay, the system named is cancer cells. The assay is described as follows: Cell death in cancer cells (cell line not given). Type of assay: cell-based. To be noted: addition of DTT.
The test system of assay [3] is LPS-triggered inflammatory response (serum TNF-α, IL-6, IL-1β). The assay is described as follows: LPS induced inflammatory cytokines in vivo. The conditions noted are these: mice pre-injected with compound, then LPS. The source says:
(+)-Ainsliadimer A (223) is a structurally unique and complex sesquiterpene lactone dimer with an unprecedented carbon skeleton, which was originally isolated from Ainsliaea macrocephala used in traditional Chinese medicine for the treatment of various diseases, including angina and rheumatoid arthritis^22. Aiming for the systematical chemical genetic studies using bioactive natural products, we have successfully accomplished the first enantioselective total syntheses of 223 as well as other related dimeric and trimeric sesquiterpenoids^23-25, which provided us ample material to extensively investigate their biological activities and potential therapy application. […] As an endotoxin, LPS is known to cause a systemic inflammatory response and acute tissue injury when injected into mice. Thus, we attempt to examine the effect of 223 on LPS-triggered inflammatory response in vivo. Mice were pre-injected with or without vehicle or 223, and then followed by administration of PBS or LPS.

The subject of assay [4] is phosphorylation of IκBα. The assay is described as follows: poly(I:C) (TLR3 ligand) triggered IκBα phosphorylation. Type of assay: cell-based.
The subject of assay [5] is phosphorylation of IκBα. The assay is described as follows: LPS induced NF-κB activation: IκBα phosphorylation in RAW264.7 cells (western blot). Type of assay: cell-based, mouse. For orientation: In western blotting, separated proteins are transferred to a membrane and probed.
The subject of assay [6] is panel of structurally related kinases.

T2 sequence (O14920 whole entry C46S): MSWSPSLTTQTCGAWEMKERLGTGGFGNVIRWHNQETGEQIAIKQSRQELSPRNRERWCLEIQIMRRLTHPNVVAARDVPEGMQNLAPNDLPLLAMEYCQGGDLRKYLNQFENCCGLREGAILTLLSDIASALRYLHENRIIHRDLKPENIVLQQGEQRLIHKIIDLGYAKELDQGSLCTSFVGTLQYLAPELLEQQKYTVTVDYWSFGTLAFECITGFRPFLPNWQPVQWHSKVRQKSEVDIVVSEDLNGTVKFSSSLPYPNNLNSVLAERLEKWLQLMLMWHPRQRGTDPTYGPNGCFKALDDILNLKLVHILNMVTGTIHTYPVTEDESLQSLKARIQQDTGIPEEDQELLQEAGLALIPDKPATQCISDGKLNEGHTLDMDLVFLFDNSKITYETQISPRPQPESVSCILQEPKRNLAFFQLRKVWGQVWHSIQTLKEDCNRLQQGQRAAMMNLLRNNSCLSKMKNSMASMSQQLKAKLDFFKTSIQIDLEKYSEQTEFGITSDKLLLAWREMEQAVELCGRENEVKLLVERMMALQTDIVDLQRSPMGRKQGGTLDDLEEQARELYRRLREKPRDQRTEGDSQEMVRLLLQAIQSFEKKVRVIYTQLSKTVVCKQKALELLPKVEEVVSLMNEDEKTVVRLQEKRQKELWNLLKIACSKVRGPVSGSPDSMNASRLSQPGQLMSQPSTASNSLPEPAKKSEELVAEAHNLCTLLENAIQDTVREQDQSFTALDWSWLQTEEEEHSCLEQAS
T1 sequence (O14920 whole entry C46A): as the sequence (O14920 whole entry C46S) above, with S46A counted along it
T3 sequence (O14920 whole entry): as the sequence (O14920 whole entry C46S) above, with S46C counted along it

Regarding `C=C1C(=O)O[C@@H]2[C@@H]3[C@@H](C[C@@]4(O)[C@]3(O)CC[C@]43C(=O)C[C@H]4C(=C)CC[C@H]5C(=C)C(=O)O[C@@H]5[C@H]43)C(=C)CC[C@@H]12` [Compound 223, (+)-Ainsliadimer A], the “interaction of IKKβ C46A mutant with compound” value on IKKβ C46A is given as “completely lost the ability to interaction”. For the same compound, the “interaction with IKKβ Cys46 to serine mutant” value at IKKβ Cys46 into serine was “abolished”. Moreover, the “inhibition of cell survival (cell viability by ATP levels)” value in assay [1] (BCG-823, 48 hours) is recorded as “dose response inhibition”. In addition, in assay [1] (BCG-823, different concentration), the cell death entry is “Dramatic cell death”. Besides, at recombinant Flag-IKKβ, the “competition of Probe binding to recombinant IKKβ” value is “competed off”. In assay [2], the “inhibitory activity against the production of NO” value is listed as “inhibitory activity”. For the same compound, the “compound-triggered inhibition of cell survival” value with cancer cells is “completely abolished”. Besides, in [3], the “up-regulation of serum IL-1β” value is on record as “greatly attenuated”, the “up-regulation of serum IL-6” value is “greatly attenuated” and the “up-regulation of serum TNF-α” value was “greatly attenuated”. Besides, the “phosphorylation of IκBα triggered by poly(I:C)” value with phosphorylation of IκBα [4] is “markedly suppressed”. Besides, the “inhibitory effect against LPS-induced NF-κB activation in comparison with BMS-345541” value in the assay with phosphorylation of IκBα [5] (RAW264.7 cells) is recorded as “much stronger inhibitory effect”. For the same compound, the “concentration that effectively blocks phosphorylation of IκBα” value in the assay on phosphorylation of IκBα [5] (RAW264.7 cells, pre-treatment, LPS for 10 or 20 minutes) is on record as “about 8 μM”. Moreover, the “phosphorylation of IκBα” value with phosphorylation of IκBα [5] (Raw 264.7 cells pre-incubated with 4 μM for 2 h, 20 ng/ml LPS, 20 minutes, western blot) is on record as “effectively blocked”. Further, the “selectivity against a panel of structurally related kinases” value in [6] was “excellent selectivity”.
